Assays:
Assay in all cases: relative viability (nuclei count vs DMSO), 5 days (fraction); higher = more cells survive
XMD13-2 + Luminespib = compound: C1CC1C(=O)NC2=NNC3=C2C=CC(=C3)C4=CC(=CC=C4)C(=O)NC5CC5 [XMD13-2] + CCNC(=O)c1noc(-c2cc(C(C)C)c(O)cc2O)c1-c1ccc(CN2CCOCC2)cc1 [Luminespib] (partner 0.01 µM)
In short: (§1)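 After 5 days of treatment, lung cancer cells in 1536-well plates were fixed and stained in a single step (final 0.05% Triton X-100, 1% formaldehyde, 1 ug/ml Hoechst) and their nuclei counted on 4× images. Treatment had been applied by pin tool the day after seeding as one drug alone or as a fixed anchor-drug dose with five library-drug doses (not always all listed) in √10 steps. Relative viability is the nuclei count of treated wells divided by that of vehicle wells, and values are medians of duplicate plates.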

XMD13-2 + Olaparib = compound: C1CC1C(=O)NC2=NNC3=C2C=CC(=C3)C4=CC(=CC=C4)C(=O)NC5CC5 [XMD13-2] + O=C(c1cc(Cc2n[nH]c(=O)c3ccccc23)ccc1F)N1CCN(C(=O)C2CC2)CC1 [Olaparib] (partner 8 µM)
In short: as §1

ALW-II-49-7 + Olaparib = compound: Cc1ccc(C(=O)Nc2cccc(C(F)(F)F)c2)cc1Nc1cncc(C(N)=O)c1 [ALW-II-49-7] + O=C(c1cc(Cc2n[nH]c(=O)c3ccccc23)ccc1F)N1CCN(C(=O)C2CC2)CC1 [Olaparib] (partner 8 µM)
In short: as §1

Cell Line	relative viability (XMD13-2 + Luminespib; first compound 0.05 µM)	relative viability (XMD13-2 + Luminespib; first compound 0.1581 µM)	relative viability (XMD13-2 + Luminespib; first compound 0.5 µM)	relative viability (XMD13-2 + Luminespib; first compound 1.581 µM)	relative viability (XMD13-2 + Luminespib; first compound 5 µM)	relative viability (XMD13-2 + Olaparib; first compound 0.05 µM)	relative viability (XMD13-2 + Olaparib; first compound 0.1581 µM)	relative viability (XMD13-2 + Olaparib; first compound 0.5 µM)	relative viability (XMD13-2 + Olaparib; first compound 1.581 µM)	relative viability (XMD13-2 + Olaparib; first compound 5 µM)	relative viability (ALW-II-49-7 + Olaparib; first compound 0.08 µM)	relative viability (ALW-II-49-7 + Olaparib; first compound 0.253 µM)	relative viability (ALW-II-49-7 + Olaparib; first compound 0.8 µM)	relative viability (ALW-II-49-7 + Olaparib; first compound 2.53 µM)	relative viability (ALW-II-49-7 + Olaparib; first compound 8 µM)
SW 1573	0.276	0.239	0.308	0.188	0.213	0.66	0.479	0.497	0.395	0.287	0.508	0.561	0.469	0.505	0.349
NCI-H2228	0.144	0.218	0.166	0.129	0.178	0.834	0.517	0.623	0.554	0.747	0.683	0.879	0.606	0.531	0.57
NCI-H1650	0.187	0.21	0.209	0.19	0.21	0.78	0.903	0.809	0.795	0.827	0.71	0.602	0.749	0.905	0.969
NCI-H358	0.487	0.202	0.418	0.196	0.321	0.72	0.618	0.667	0.718	0.61	0.431	0.545	0.644	0.452	0.387
NCI-H1792	0.25	0.462	0.447	0.571	0.377	0.628	0.385	0.428	0.383	0.573	0.501	0.384	0.6	0.327	0.342
COR-L 105	0.867	0.852	0.704	0.749	0.789	0.606	0.678	0.656	0.564	0.759	0.646	0.626	0.781	0.663	0.578
LU99A	0.262	0.295	0.254	0.178	0.267	0.288	0.277	0.248	0.273	0.263		0.292	0.249	0.254	0.288
H3255	0.859	0.947	0.859	0.62	0.955	0.635	0.634	0.584	0.519	0.558	0.516	0.549	0.492	0.537	0.477
NCI-H1734	0.259	0.179	0.179	0.192	0.177	0.769	0.628	0.616	0.594	0.523	0.57	0.628	0.596	0.46	0.558
NCI-H650	0.854	0.757	0.854	0.822	0.668	0.379	0.379	0.424	0.462	0.356	0.42	0.388	0.416	0.351	0.304
NCI-H1915	0.867	0.859	0.833	0.717	0.635	0.273	0.253	0.287	0.254	0.269	0.243	0.275	0.224	0.211	0.398

From the supplement of paper PMC10307832
